Data published in US6551793B1, “Carotenoid-associated proteins useful for high carotenoid accumulation and production in plants and other organisms” (Yissum Research Development Company of the Hebrew …, priority 1996, dated 2003).

Assays:
Format in all cases: cell-based, Cucumis sativus
CHRC mRNA [1] = experiment: In vitro flower bud culture, Northern blot of CHRC mRNA in corollas; conditions: 100 μM ABA, 2 hours
Description: (§1) Young flower buds were cultured in vitro in the presence (GA) or the absence (C) of 100 μM GA3 for up to 48 hours. Northern and Western blot analyses of corollas, cultured for the indicated periods of time, were performed. The Northern blots (25 μg total RNA/lane) were hybridized with ^32P-labeled DNA inserts from CHRC (CHRC), […] (Psy), and 18s rDNA (18S). Western blot analysis (bottom panel of A) was performed using antibodies against CHRC protein (25 μg total protein/lane). The results of the CHRC Northern blot analyses are also shown graphically relative to the mRNA level of the untreated corollas at zero time (0) (arbitrary value of 1).
(§2) Flower buds were cultured in the presence of 100 μm GA3 (GA), 100 μg/ml paclobutrazol following 2 hours of pretreatment with 100 μg/ml paclobutrazol (P), 100 μg/ml paclobutrazol +100 μm GA3 following 2 hours of pretreatment with 100 μg/ml paclobutrazol (P/GA), 100 μM ABA (ABA), or no phytohormones (C). Total RNA was extracted from corollas after 2 hours of treatment. Northern blot analyses were performed and probed as described in the legend to FIG. 7.
(§3) Total RNA and protein were extracted from cucumber corollas of flower buds cultured for 6 hours in the presence of 100 μM GA3 (GA), 50 μM CHX following 2 hours of pretreatment with 50 μM CHX (CHX/GA), or no phytohormones (C). Northern (CHRC, Psy, and 18S) and Western (bottom panel) blot analyses were performed as described above.
In FIG. 10, flower buds were cultured for 2 hours without (0) or with various concentrations of GA3. Total RNA was isolated from corollas, and a Northern blot was probed as above. The results of the CHRC Northern blot analyses are also shown graphically relative to the mRNA level of control corollas cultured without GA3 (arbitrary value of 1).
(§4) This example describes plant material and conditions for in vitro flower bud culture. C. sativus L. plants (cultivar Shimahon, obtained from Zeraim Gadera, Israel) were grown under standard greenhouse conditions. In vitro culture of flower buds was performed at 23° C., under constant light from cool white fluorescent lamps with a photosynthetic photon flux density of 80 μmol/m^2 g, as described previously. Briefly, buds at developmental stage 1 (˜8 mm in length, 120 hours before anthesis) were collected and rinsed several times with sterile water. Buds were then placed for 24 hours on a perforated Parafilm (American National Can, Greenwich, Conn.) covering a Petri dish filled with double-distilled sterile water, such that only the bases of the buds were in contact with the liquid. Following equilibration, buds were transferred to a fresh Petri dish (zero time for the experiments) and treated with GA3, ABA, paclobutrazol, or CHX, as specified in the figure legends.
This example describes conditions used for RNA isolation and Northern blot analysis. Total RNA from corollas of cucumber flower buds was isolated as described previously. RNA (15 and 25 μg) was fractionated through a 1.2% formaldehyde gel and transferred to a Hybond-N^− filter (Amersham Corp.). A random priming kit (Boehringer Mannheim) was used to radioactively labeled DNA probes. The blots were hybridized with ^32P-labeled cucumber CHRC cDNA (Vishnevetsky, et al., Plant Journal, 10: 1111-1118 (1996)) and reprobed with melon phytoene synthase (PSY) cDNA (MEL5), provided by D. Grierson of the Nottingham University, UK. The hybridization for analysis of CHRC expression was carried out in 0.263 M Na2HPO4, 7% SDS, […], 1% BSA for 16 hours at 60° C., and the washes were performed in 2×SSC/0.1% SDS at 50° C. followed by 2×SSC/0.1% SDS at 55° C., for 20 minutes each. Hybridization with the MEL5 probe was carried out at 55° C. using the same procedure. Following the hybridization, the blots were washed in 5×SSC/0.1% SDS at 45° C. for 20 minutes followed by 5×SSC/0.1% SDS at 50° C. and 2×SSC/0.1% SDS at 50° C. for 20 minutes each. […]

Psy mRNA = experiment: In vitro flower bud culture, Northern blot of Psy mRNA in corollas; conditions: 100 μM ABA or 100 μg/ml paclobutrazol, 2 hours of treatment
Description: as §1, §2, §3
as §4, with “Following equilibration, buds were transferred to a fresh Petri dish (zero time for the experiments) and treated with GA3, ABA, paclobutrazol, or CHX, as specified in the figure legends.” left out
This example describes conditions used for RNA isolation and Northern blot analysis. […] Autoradiograms were quantified by scanning suitably exposed films in a densitometer (Molecular Dynamics, Sunnyvale, Calif.). The amount of RNA loaded onto the gels was standardized by optical measurement, by quantitation of the ethidium bromide fluorescence of cytoplasmic rRNA. and by the level of hybridization with a DNA fragment coding for cytoplasmic 18S RNA.

CHRD = experiment: In vitro flower bud culture, Western blot of CHRD in corollas; conditions: flower buds cultured for 72 hours
Description: CHRD levels in corollas were analyzed by western blotting (10 μg of total protein per lane) using antibodies against CHRD and horseradish peroxidase anti-rabbit IgG in an enhanced chemiluminescence detection system. FIG. 14B is a Western blot analysis of corollas (50 μg of total protein per lane) cultured for the indicated periods with (+) or without (−) GA3. The blot was decorated with antibodies against CHRD and alkaline phosphatase anti-rabbit 1 gG.
In FIG. 15A, antibodies against CHRD or CHRC were used in a western blot analysis of CHRD and CHRC levels, respectively, in corollas cultured for 72 hours in the presence (E) or absence (C) of ethylene (50 μg of total protein per lane). In FIG. 15B, flowers were enclosed in aluminum foil in the greenhouse for 3 days and CHRD levels in etiolated (D) and control, nonetiolated (L) corollas were analyzed by western blotting (50 μg of total protein per lane).
as §4
CHRD protein was isolated from Cucumis sativus as a minor component, immunologically characterised and analyzed in terms of the regulation of its expression by developmental signals using methods and conditions described above for CHRC. […] Carotenoids are known to accumulate in dark.

CHRC mRNA [2] = experiment: In vitro flower bud culture, Northern blot of CHRC mRNA in corollas; conditions: 10 μM ABA

**Q.** Which “Down-regulation of CHRC mRNA level compared with control corollas” value (CHRC mRNA [1]) does the source give for CC1=CC(=O)CC(C)(C)[C@@]1(O)/C=C/C(C)=C\C(=O)O [ABA, abscisic acid] here?
**A.** 2.5 times

**Q.** And the “Effect on Psy mRNA levels” value (Psy mRNA)?
**A.** Neither ABA nor paclobutrazol markedly affected

**Q.** And the “CHRD level per unit protein, down-regulation compared with control untreated corollas” value (CHRD)?
**A.** 2.5±0.3 times

**Q.** And the “Down-regulation of CHRC expression” value (CHRC mRNA [2])?
**A.** only slightly down-regulated
